Results: US5032591A, “Pharmaceutical preparations” (Beecham Group p.l.c., priority 1988, dated 1991)

System: conscious male spontaneously hypertensive rats (SHR)
Experiment: anti-hypertensive response: area under the control group blood pressure curve (mean arterial blood pressure, indwelling catheter) in conscious male spontaneously hypertensive rats
Assay type: in vivo
Conditions: cromakalim 0.075 mg/kg po, n=10
Protocol: Mean arterial blood pressures were measured from an indwelling catheter as described by Buckingham 1976 J. Pharm. Pharmac Vol. 28, pp 459-461. 1. Calculation of area under the control group blood pressure curve (AUC). Group mean arterial blood pressure values were calculated as % change from the pretreatment baseline. For each drug treatment group the area under the control group blood pressure curve was calculated using a trapezoidal method. […] Predicted AUC values were arrived at by combining values for each treatment given alone.

CC1(C)Oc2ccc(C#N)cc2[C@@H](N2CCCC2=O)[C@@H]1O (racemic) [Cromakalim, (±)-6-cyano-3,4-dihydro-2,2-dimethyl-trans-4-(2-oxo-1-pyrrolidinyl)-2H-benzo[b]pyran-3-ol]
AUC (0-2 h) (0-2 h): 1941 | AUC (0-4 h) (0-4 h): 2981
